{"source": "patent US12274686B2", "about": "“Specialized pro-resolving mediators (SPMs) as melanocyte growth promoter and pro-survival factors and uses thereof” (THE UNIVERSITY OF BRITISH COLUMBIA, priority 2021, dated 2025)", "key": {"[1]": {"tested_on": "vitiligo patches", "experiment": "Topical treatment of vitiligo patches refractory to topical anti-inflammatory therapies (single subject)", "assay_type": "in vivo, human", "conditions": "for change in the size of the white areas: mometasone fumarate 0.1% cream BID (abdominal macule), clobetasol 0.05% cream OD (two patches right hand), 12 months", "procedure": "Topical maresin 1 was tested on a person with a 5 year and 3 month history of developing two white patches on the dorsal right hand and one white macule on the right mid abdomen. […] There were no signs of inflammation such as redness, or presence of scales. There were no symptoms such as itchiness or pain. […] On examination, the subject appeared to be well. Complete skin examination was performed. The entire skin appeared to be normal aside from three lesions of depigmentation: (1) a 1.5×1.2 cm white patch on the mid right abdomen; (2) a 1.3×1.0 cm white patch on the dorsum of right third metacarpal head; and (3) a 1.0×0.8 cm sized white macule on the dorsum of right 4th metacarpal head."}, "[2]": {"tested_on": "primary human epidermal melanocytes", "experiment": "Melanocyte survival assay in vitro (growth factor supplement withdrawn), CellTiter-Blue viability", "assay_type": "cell-based", "conditions": "for ability to protect melanocytes: physiological distress", "procedure": "Human neonatal epidermal melanocytes (HEMn-DP) were purchased from ThermoFisher Scientific™ (C-202-5C). Melanocytes were cultured in full growth medium (Medium 254 supplemented with Human Melanocyte Growth Supplement, both purchased from ThermoFisher Scientific™. Cells were expanded and passaged 3 times before conducting the assay. 4×10^3 melanocytes per well were seeded into 96 well plate and allowed to recover for 4 hours before the treatment was added for each condition in 100 μl final volume. Cells were treated and kept in 37° C., 5% CO2 for 3 days. Viability assay was conducted using CellTiter-Blue Cell Viability Assay Kit™ (Promega™, G8080) and signal was measured using GlowMax™ plate reader (Promega™) after 4 hours at 37° C., 5% CO2. Merasin 1 (Cayman™) was diluted into 1 μg/ml using PBS and added to the culture medium at concentrations ranging from 0 to 1 μg/ml. For survival assays, the procedure was essentially the same as proliferation assay except that melanocytes were kept in M254 medium without human melanocyte growth supplement. The assays were conducted in triplicates."}, "[3]": {"tested_on": "B6 mouse canities model", "experiment": "B6 mouse model of canities (spontaneous hair greying) and aging-associated weight gain", "assay_type": "in vivo, C57BL/J6 mice", "conditions": "800 ng maresin 1 IP three times a week", "description": "To observe aging-associated spontaneous hair greying (canities), C57BL/J6 mice aged 8 weeks were purchased from JAX Labs™ and kept in standard conditions for 8 weeks. The fur color as well as overall appearance and behaviors were monitored daily by visual inspection and by photography. By 6-8 weeks, about 20-40% of the mice would develop spontaneous canities. At the end of observation, central venous blood was collected and used for ELISA analysis using maresin 1 ELISA kit (Caymen Chemicals™) following the manufacturers' recommended protocol with purified maresin 1 serving as the chemical standard.\nC57BL/J6 mice from The Jackson Laboratory™, 8 weeks of age were divided into two groups that received intraperitoneal injections of maresin 1 (800 ng in 100 μl saline) or saline alone three times a week for 6 weeks. […] At the end of the experiment, the mice were photographed and weighed."}, "[4]": {"tested_on": "B6 mouse Vitiligo model", "experiment": "B6 mouse model of vitiligo with TRP2 immunization", "assay_type": "in vivo, C57BL/J6 mice", "description": "([…], Deming Regression). * p<0.05 (two tailed t test).\nEight week old female C57BL/J6 mice were ordered from The Jackson Laboratory™, and fed a standard diet of Animal Care Facility of Vancouver Coastal Health Research institute (4 mice/cage). For induction of vitiligo, mice were immunized by intradermal injections (ID, starting at Day 0) at the left hock, and repeated at 2-week, using the method described by S. You et al. that efficiently induces melanocyte specific CD8+ T cell responses^(53). The immunogen consisted of TRP2-180 (50 μg) peptide mixed with LPS (5 μg) and CpG ODN 1826 (5 μg) in 50 μL of PBS solution per mouse per injection. Immunization response score was recorded at 48 hours after the first immunization by evaluating the redness and swelling (0=none, 1=mild, 2=moderate, 3=severe). For assessing macrophage M1 and M2 populations, the TRP-immunized and non-immunized mice were anaesthetized 48 hours after immunization for skin sampling at the immunization site and used for cell isolation as described above.\nFor assessing the effects of maresin 1 treatment, C57BL/J6 mice were randomly assigned to the sham injection control group (200 μl saline IP, n=20) and the Maresin 1 injection group (800 ng in 200 μl saline IP, n=20). […] Mice were monitored 5 times per week and evaluated using a Depigmentation Area Scoring Template (0-5) (FIG. 5C). […]"}, "[5]": {"tested_on": "skin resident M2 macrophages", "experiment": "Skin resident M1 (CD80+) / M2 (CD163+) macrophages by flow cytometry in B6 mice with or without maresin 1", "assay_type": "in vivo, C57BL/J6 mice", "procedure": "For isolation of macrophages from murine skin: 1 cm×1 cm sized skin samples were cut into small pieces, placed in a solution of PBS containing 1 mg/ml dispase (Roche™) and incubated for 1 hour at 37° C. The samples were then transferred into RPMI containing 1 mg/ml Collagenase IV and 0.1 mg/ml DNAse (Sigma Aldrich™) and incubated for 90 minutes at 37° C. Single cell suspension was prepared by passing through 100 μm strainer. Cells were washed and stained in PBS without Ca^2+ and Mg^2+ supplemented with 1% heat-inactivated FCS. Cell surface staining panel included anti-mouse CD163-BV421™, CD80-Alexa fluor 647™, and CD11b-Percp Cy5.5™ (Biolegend™) for 30 minutes at 4° C. Cells were washed with PBS and analyzed with LSRII™ cell sorter (BD Biosciences™).\nEight week old female C57BL/J6 mice were ordered from The Jackson Laboratory™, and fed a standard diet of Animal Care Facility of Vancouver Coastal Health Research institute (4 mice/cage). For induction of vitiligo, mice were immunized by intradermal injections (ID, starting at Day 0) at the left hock, and repeated at 2-week, using the method described by S. You et al. that efficiently induces melanocyte specific CD8+ T cell responses^(53). […] Immunization response score was recorded at 48 hours after the first immunization by evaluating the redness and swelling (0=none, 1=mild, 2=moderate, 3=severe). […]"}, "[6]": {"conditions": "cultured human epidermal melanocytes"}}, "data": [{"compound": "C[C@H]1C[C@H]2[C@@H]3CCC4=CC(=O)C=C[C@]4(C)[C@@]3(F)[C@@H](O)C[C@]2(C)[C@@]1(O)C(=O)CCl", "note": "[clobetasol, reference compound]", "values": [{"measurement": "change in the size of the white areas", "setting": "[1]", "result": "did not notice any change"}]}, {"compound": "CCCCC[C@H](O)/C=C/C=C\\C=C\\C=C\\[C@@H](O)[C@@H](O)CCCC(=O)O", "note": "[lipoxin A4, reference compound]", "values": [{"measurement": "pro-survival effects on the melanocytes in vitro", "setting": "[2]; SPMs 0 to 300 ng/ml, cultured human epidermal melanocytes", "result": "significantly decreased melanocyte survival"}, {"measurement": "ability to protect melanocytes", "setting": "[2]; [6]", "result": "accelerated melanocyte depletion"}]}, {"compound": "CCCCC[C@@H](O)[C@H](O)/C=C/C=C/C=C\\C=C\\[C@@H](O)CCCC(=O)O", "note": "[lipoxin B4, 5S,14R,15S-trihydroxy-6E,8Z,10E,12E-eicosatetraenoic acid]", "values": [{"measurement": "ability to protect melanocytes", "setting": "[2]; [6]", "result": "show ability to protect melanocytes"}]}, {"compound": "CC/C=C\\C/C=C\\C[C@H](O)\\C=C/C=C/C=C/[C@H](O)C/C=C\\CCC(=O)O", "note": "[maresin 1, 7R, 14S-dihydroxy-4Z, 8E, 10E, 12Z, 16Z, 19Z-docosahexaenoic acid]", "values": [{"measurement": "canities development", "setting": "[3]; saline control 15% by 15 weeks of age, p<0.0125 Log Rank", "result": "completely blocked"}, {"measurement": "aging associated weight gain", "setting": "[3]; saline control 17.7%, p=0.0423", "result": 14.2, "unit": "%"}, {"measurement": "repigmentation", "setting": "[1]; 0.01% maresin 1 in ethanol twice daily, by the end of three months", "result": "significant repigmentation"}, {"measurement": "decrease of lesion area, third lesion", "setting": "[1]; 0.01% maresin 1 in ethanol twice daily, three months, 1.0×0.8 cm macule right 4th metacarpal head", "result": 11.1, "unit": "%"}, {"measurement": "decrease of lesion area, second lesion", "setting": "[1]; 0.01% maresin 1 in ethanol twice daily, three months, 1.3×1.0 cm patch right third metacarpal head", "result": 10.5, "unit": "%"}, {"measurement": "decrease of lesion area, first lesion", "setting": "[1]; 0.01% maresin 1 in ethanol twice daily, three months, 1.5×1.2 cm patch mid right abdomen", "result": 13.6, "unit": "%"}, {"measurement": "adverse events such as irritation, itchiness or redness", "setting": "[1]; 0.01% maresin 1 in ethanol, topical twice daily", "result": "did no notice any adverse events"}, {"measurement": "decrease of the areas of the three depigmented lesions (overall)", "setting": "[1]; ethanol solution containing 0.01% maresin 1 twice daily, three months", "result": 11.7, "unit": "%"}, {"measurement": "ability to protect melanocytes", "setting": "[2]; [6]", "result": "show ability to protect melanocytes"}, {"measurement": "melanocyte depletion (surviving melanocytes) after growth factor supplement withdrawal", "setting": "[2]; maresin 1 10 to 300 ng/ml, three days, p<0.01", "result": "significant reduction of melanocyte depletion"}, {"measurement": "melanocyte depletion caused by growth factor withdrawal", "setting": "[2]; three days in culture, no growth factor supplement", "result": "markedly reducing melanocyte depletion"}, {"measurement": "vitiligo development (average depigmentation score at immunization site)", "setting": "[4]; maresin 1 800 ng/mouse IP three times per week for 8 weeks vs saline (sham)", "result": "significant reduction of vitiligo development"}, {"measurement": "immunization response (peak score, erythema + edema)", "setting": "[4]; maresin 1 800 ng/mouse IP, 48 hours after TRP2 immunization, vs saline", "result": "significantly reduced the immunization response"}, {"measurement": "post-immunization M2/M1 ratio at the TRP2 immunization site", "setting": "[5]; maresin 1 800 ng/mouse IP pretreatment, skin 48 hours after TRP2 immunization, CD163+/CD80+ cells", "result": "restoring the post-immunization M2/M1 ratio to a level above the pre-immunization state"}, {"measurement": "M2/M1 ratio in the skin of B6 mice", "setting": "[5]; maresin 1 treatment, increase from 0.44", "result": 5.34}]}, {"compound": "CC/C=C\\C/C=C\\C[C@H](O)[C@H](O)/C=C/C=C/C=C\\C/C=C\\CCC(=O)O", "note": "[maresin 2, 13R,14S-dihydroxy-4Z,7Z,9E,11E,16Z,19Z-docosahexaenoic acid]", "values": [{"measurement": "ability to protect melanocytes", "setting": "[2]; [6]", "result": "show ability to protect melanocytes"}]}, {"compound": "CC/C=C\\C[C@H](O)\\C=C/C=C/C=C/[C@H](O)C/C=C\\C/C=C\\CCC(=O)O", "note": "[protectin D1, 10R,17S-dihydroxy-4Z,7Z,11E,13E,15Z,19Z-docosahexaenoic acid]", "values": [{"measurement": "ability to protect melanocytes", "setting": "[2]; [6]", "result": "show ability to protect melanocytes"}]}, {"compound": "CC/C=C\\C[C@H](O)[C@H](O)/C=C/C=C/C=C\\C=C\\[C@@H](O)C/C=C\\CCC(=O)O", "note": "[resolvin D2, 7S,16R,17S-trihydroxy-4Z,8E,10Z,12E,14E,19Z-docosahexaenoic acid]", "values": [{"measurement": "ability to protect melanocytes", "setting": "[2]; [6]", "result": "show ability to protect melanocytes"}]}, {"compound": "CC[C@@H](O)/C=C/C=C\\C[C@@H](O)/C=C/C=C/C=C\\[C@@H](O)CCCC(=O)O", "note": "[resolvin E1, 5S,12R,18R-trihydroxy-6Z,8E,10E,14Z,16E-eicosapentaenoic acid]", "values": [{"measurement": "ability to protect melanocytes", "setting": "[2]; [6]", "result": "show ability to protect melanocytes"}]}, {"compound": "mometasone fumarate [reference compound]", "values": [{"measurement": "change in the size of the white areas", "setting": "[1]", "result": "did not notice any change"}]}]}
